Data: patent US20240041042A1, “1-(PYRIDYL)-5-AZINYLPYRAZOLE DERIVATIVES, AND THEIR USE FOR CONTROL OF UNDESIRED PLANT GROWTH” (Bayer Aktiengesellschaft, priority 2020, published 2024)

Tests used:
Type in all cases: in vivo
Viola tricolor (VIOTR) = experiment: Pre-emergence herbicidal action against VIOTR
In short: (§1)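 Application rates ran to 320 g/ha or lower, with several dosages tested on the same weeds. The compound, as wettable powder or emulsion concentrate, is sprayed pre-emergence onto soil over sown seeds; greenhouse growth follows, and effect is rated visually after roughly 3 weeks.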

Avena fatua (AVEFA) = experiment: Post-emergence herbicidal action against AVEFA; details: visual rating about 3 weeks after treatment
In short: (§2)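 Post-emergence greenhouse spray, one-leaf stage, 600 l/ha water plus 0.5% additive; WP or EC formulations; application rates 320 g/ha or lower. Visual % damage vs untreated controls at ~3 weeks.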

[1] = test system: Matricaria inodora (MATIN); experiment: Post-emergence herbicidal action against MATIN
In short: as §2

[2] = test system: Abutilon theophrasti (ABUTH); experiment: Pre-emergence herbicidal action against ABUTH; details: 100% = plants have died
In short: as §1

[3] = test system: Echinochloa crus-galli (ECHCG); experiment: Pre-emergence herbicidal action against ECHCG
In short: as §1

[4] = test system: Amaranthus retroflexus (AMARE); experiment: Post-emergence herbicidal action against AMARE
In short: as §2

[5] = test system: Alopecurus myosuroides (ALOMY); experiment: Post-emergence herbicidal action against ALOMY; details: visual rating about 3 weeks after treatment vs untreated controls (100% = plants have died, 0% = like control plants)
In short: as §2

[6] = test system: Echinochloa crus-galli (ECHCG); experiment: Post-emergence herbicidal action against ECHCG
In short: as §2

[7] = test system: Abutilon theophrasti (ABUTH); experiment: Post-emergence herbicidal action against ABUTH; details: visual rating about 3 weeks after treatment vs untreated controls (100% = plants have died, 0% = like control plants)
In short: as §2

[8] = test system: Pharbitis purpurea (PHBPU); experiment: Post-emergence herbicidal action against PHBPU
In short: as §2

[9] = Dosage column 320 g/ha (title prints 3200 g/ha), scored visually after about 3 weeks
[10] = 320 g/ha, visual rating about 3 weeks after treatment
[11] = 80 g/ha, scored visually after about 3 weeks vs untreated controls, 0% = like control plants
[12] = 80 g/ha, visual rating about 3 weeks after treatment vs untreated controls (100% = plants have died, 0% = like control plants)

Compound | Pre-emergence action against VIOTR in % (Viola tricolor (VIOTR); 320 g/ha, Viola tricolor) | Pre-emergence action against VIOTR in % (Viola tricolor (VIOTR); dosage 80 g/ha) | Post-emergence action against AVEFA in % (Avena fatua (AVEFA); 80 g/ha) | Post-emergence action against AVEFA in % (Avena fatua (AVEFA); 320 g/ha) | Post-emergence action against MATIN in % ([1]; dosage 320 g/ha) | Pre-emergence action against ABUTH [2, 9] | Pre-emergence action against ECHCG in % ([3]; dosage 80 g/ha) | Pre-emergence action against ECHCG in % ([3]; dosage 320 g/ha) | Post-emergence action against AMARE in % [4, 10] | Post-emergence action against ALOMY in % ([5]; 80 g/ha) | Post-emergence action against ALOMY in % ([5]; 320 g/ha) | Post-emergence action against ECHCG in % ([6]; dosage 80 g/ha) | Post-emergence action against ECHCG in % ([6]; dosage 320 g/ha) | Pre-emergence action against ABUTH [2, 11] | Post-emergence action against ABUTH in % ([7]; 320 g/ha) | Post-emergence action against AMARE in % [4, 12] | Post-emergence action against PHBPU in % ([8]; dosage 320 g/ha) | Post-emergence action against ABUTH in % ([7]; 80 g/ha) | Post-emergence action against PHBPU in % ([8]; dosage 80 g/ha) | Post-emergence action against MATIN in % ([1]; dosage 80 g/ha)
C[C@@H](Oc1nn(-c2nc(F)ccc2F)c(-c2cncc(F)c2)c1C1CC1)C(=O)O [Example I-180] | 100% | 100% | 80% | 90% | 90% | 80% | 100% | 100% | 90% | 90% | 90% | 80% | 90% | – | – | – | – | – | – | –
COC(=O)C(C)NC(=O)[C@@H](C)Oc1nn(-c2ccccn2)c(-c2cncc(F)c2)c1Cl (stereo partly drawn) [Example I-199] | 100% | 100% | – | 80% | 80% | 90% | 90% | 90% | 90% | – | 90% | 90% | 90% | 80% | 80% | 80% | 80% | – | – | –
COC(=O)[C@@H](C)Oc1nn(-c2nc(F)ccc2F)c(-c2cncc(F)c2)c1Br [Example I-191] | 100% | 100% | 80% | 90% | 80% | 90% | 90% | 100% | 80% | 80% | 90% | 80% | 80% | – | 80% | 80% | 100% | 80% | 90% | –
CCOC(=O)[C@@H](C)Oc1nn(-c2nc(F)ccc2F)c(-c2cncc(F)c2)c1Cl [Example I-208] | 100% | 100% | – | – | 80% | 90% | 90% | 100% | 80% | – | 80% | 80% | 90% | 80% | 90% | – | 90% | 80% | 80% | 80%
O=C(O)COc1nn(-c2ncccc2F)c(-c2ccc(F)nc2)c1Br [Example I-08] | 100% | 100% | 80% | 90% | 90% | 80% | 80% | 100% | 90% | 100% | 100% | 80% | 90% | – | 90% | 80% | 80% | 80% | 80% | 90%
COC(=O)CNC(=O)[C@@H](C)Oc1nn(-c2ccccn2)c(-c2cncc(F)c2)c1Br [Example I-187] | 100% | 100% | – | 80% | 80% | 90% | 90% | 100% | – | – | 90% | 80% | 80% | 80% | 80% | – | 80% | – | – | –
C[C@@H](Oc1nn(-c2ncccc2F)c(-c2ccc(F)nc2)c1Br)C(=O)O [Example I-18] | 100% | 100% | – | 80% | 80% | 90% | 90% | 90% | – | 90% | 100% | 80% | 80% | 80% | 80% | – | – | – | – | 80%
COC(=O)COc1nn(-c2nc(F)ccc2F)c(-c2cncc(F)c2)c1C1CC1 [Example I-164] | 100% | 100% | 80% | 80% | 80% | 80% | 90% | 100% | – | 100% | 100% | 80% | 80% | – | – | – | 90% | – | 80% | –
COC(=O)COc1nn(-c2ncccc2F)c(-c2cncc(F)c2)c1C1CC1 [Example I-167] | 100% | 100% | 80% | 90% | – | 90% | 100% | 100% | 80% | 90% | 90% | 80% | 80% | – | 80% | 80% | 90% | 80% | 90% | –
COC(=O)C(C)NC(=O)[C@@H](C)Oc1nn(-c2ccccn2)c(-c2cncc(F)c2)c1Br (stereo partly drawn) [Example I-190] | 100% | 100% | – | 80% | 80% | 80% | 90% | 100% | 80% | 80% | 100% | 80% | 80% | – | 80% | – | – | 80% | – | –
